Like-named read-outs stand apart in the source and are kept apart here.
Experiments:
Assay type in all cases: cell-based, human
H740 = assay: 3H thymidine proliferation assay, H740
Experimental: (§1) This example generally describes the procedures used to assay the antiproliferative activity of compounds of this invention or their conjugates. Human tumor cell lines were obtained from the American Type Culture Collection (ATCC), P.O. Box 1549, Manassas, Va. 20108, USA, and cultured according to instruction from the ATCC. Cells were seeded at 1.0×10^3 or 1.0×10^4 cells/well in 96-well plates for 3 h for ATP assays or ^3H thymidine assays, respectively. 1:3 serial dilutions of free (unconjugated) compounds or their conjugates were added to the wells. Plates were allowed to incubate for 24 to 72 h. The ^3H thymidine plates were pulsed with 1.0 μCi of ^3H-thymidine per well for the last 24 hours of the total incubation period, harvested, and read on a Top Count Scintillation Counter (Packard Instruments, Meriden, Conn.). ATP levels in the ATP plates were measured using the […]-GLO® Luminescent Cell Viability kit following the manufacturer's manual and read on a GLOMAX® 20/20 luminometer (both from Promega, Madison, Wis., USA). The EC50 values—the concentration at which an agent inhibits or reduces cell proliferation by 50% —were determined using PRISM™ software, version 4.0 (GraphPad Software, La Jolla, Calif., USA).
(§2) Using the ^3H thymidine or the ATP luminescence assay, or both, the activities of compounds of this invention were assayed against the following cancer cell lines: HCT-15 (colorectal cancer, multi-drug resistant (MDR)); Hep3B (liver cancer); LNCaP (prostate cancer, androgen receptor positive (AR^+)); MDA-MB-231 (breast cancer, estrogen receptor, progesterone receptor, and Her2 negative (triple negative)); A2058 (melanoma); U-87 MG (glioblastoma); NCI-H460 (NSCLC); A549 (NSCLC); HPAC (pancreatic cancer, primary); PC3 (prostate cancer, AR); BT474 (breast cancer, Her2 highly positive (Her2hi)); SKOV3 (ovarian cancer, Her2hi); 786-O (renal cancer); UO-31 (renal cancer, MDR); NCI-H740 (SCLC); DMS53 (SCLC); SK-BR3 (breast cancer, Her2hi); ZR-75 (breast cancer, estrogen receptor positive); OVCAR3 (ovarian cancer); HL-60 (APL); OVCAR8/Adr (ovarian cancer, MDR); CEM-Cl (ALL); Nomo-1 (AML); RPMI-8226 (MM)); Raji (lymphoma); SW-480 (colorectal cancer, metastatic); SW-620 (colorectal cancer); and H226 (lung cancer). (Not all compounds were assayed against all cell lines.)
(§3) Table 2 provides the data for proliferation assays using the ^3H thymidine method, with an incubation period of 72 h.

RPMI-8226 = assay: ATP luminescence proliferation assay, RPMI-8226
Experimental: as §1, §2
(§4) Table 3 provides the data for the ATP luminescence proliferation assays, with an incubation period of 48, 72, or 96 h, as noted.

Raji = assay: 3H thymidine proliferation assay, Raji
Experimental: as §1, §2, §3

ZR-75 = assay: 3H thymidine proliferation assay, ZR-75
Experimental: as §1, §2, §3

LNCaP = assay: 3H thymidine proliferation assay, LNCaP
Experimental: as §1, §2, §3

HCT-15 [1] = assay: 3H thymidine proliferation assay, HCT-15
Experimental: as §1, §2, §3

786-O = assay: 3H thymidine proliferation assay, 786-O
Experimental: as §1, §2, §3

U-87 MG = assay: ATP luminescence proliferation assay, U-87 MG
Experimental: as §1, §2, §4

HPAC = assay: 3H thymidine proliferation assay, HPAC
Experimental: as §1, §2, §3

Nomo-1 = assay: ATP luminescence proliferation assay, Nomo-1
Experimental: as §1, §2, §4

HCT-15 [2] = assay: ATP luminescence proliferation assay, HCT-15
Experimental: as §1, §2, §4

UO-31 = assay: ATP luminescence proliferation assay, UO-31
Experimental: as §1, §2, §4

[3] = 3H thymidine method, 72 h incubation, read-out: EC50, H740
[4] = ATP luminescence, RPMI-8226, 72 h incubation, read-out: EC50 RPMI-8226 (72 h)
[5] = 3H thymidine method, 72 h incubation, read-out: EC50, Raji
[6] = 3H thymidine method, 72 h incubation, read-out: EC50, ZR-75
[7] = 3H thymidine method, 72 h incubation, read-out: EC50, LNCaP
[8] = 3H thymidine method, 72 h incubation, read-out: EC50, HCT-15
[9] = 3H thymidine method, 72 h incubation, read-out: EC50, 786-O
[10] = ATP luminescence, 72 h incubation, read-out: EC50 U-87 MG (72 h)
[11] = 3H thymidine method, 72 h incubation, read-out: EC50, HPAC
[12] = ATP luminescence, Nomo-1, 72 h incubation, read-out: EC50 Nomo-1 (72 h)
[13] = ATP luminescence, HCT-15, 48 h incubation, read-out: EC50 HCT-15 (48 h)
[14] = ATP luminescence, UO-31, 48 h incubation, read-out: EC50 UO-31 (48 h)
[15] = ATP luminescence, HCT-15, 72 h incubation, read-out: EC50 HCT-15 (72 h)
[16] = Homo sapiens, read-out: EC50, H740, 3H thymidine method, 72 h incubation
[17] = Homo sapiens, RPMI-8226, 72 h, read-out: EC50 RPMI-8226 (72 h), ATP luminescence, RPMI-8226, 72 h incubation
[18] = Homo sapiens, Raji, read-out: EC50, Raji, 3H thymidine method, 72 h incubation
[19] = Homo sapiens, LNCaP, read-out: EC50, LNCaP, 3H thymidine method, 72 h incubation
[20] = Homo sapiens, HCT-15, read-out: EC50, HCT-15, 3H thymidine method, 72 h incubation
[21] = Homo sapiens, 72 h, read-out: EC50 U-87 MG (72 h), ATP luminescence, U-87 MG, 72 h incubation
[22] = Homo sapiens, HPAC, read-out: EC50, HPAC, 3H thymidine method, 72 h incubation
[23] = Homo sapiens, NOMO-1, 72 h, read-out: EC50 Nomo-1 (72 h), ATP luminescence, Nomo-1, 72 h incubation
[24] = Homo sapiens, HCT-15, 48 h, read-out: EC50 HCT-15 (48 h), ATP luminescence, HCT-15, 48 h incubation
[25] = Homo sapiens, UO-31, 48 h, read-out: EC50 UO-31 (48 h), ATP luminescence, UO-31, 48 h incubation
[26] = Homo sapiens, ZR75, read-out: EC50, ZR-75, 3H thymidine method, 72 h incubation
[27] = Homo sapiens, 786-0, read-out: EC50, 786-O, 3H thymidine method, 72 h incubation

| SMILES | EC50 (H740; [3]) | EC50 (RPMI-8226; [4]) | EC50 (Raji; [5]) | EC50 (ZR-75; [6]) | EC50 (LNCaP; [7]) | EC50 (HCT-15 [1]; [8]) | EC50 (786-O; [9]) | EC50 (U-87 MG; [10]) | EC50 (HPAC; [11]) | EC50 (Nomo-1; [12]) | EC50 (UO-31; [14]) | EC50 (HCT-15 [2]; [15]) | EC50 (H740; [16]) | EC50 (RPMI-8226; [17]) | EC50 (Raji; [18]) | EC50 (LNCaP; [19]) | EC50 (HCT-15 [1]; [20]) | EC50 (U-87 MG; [21]) | EC50 (HPAC; [22]) | EC50 (Nomo-1; [23]) | also measured |
| --- | --- | --- | --- | --- | --- | --- | --- | --- | --- | --- | --- | --- | --- | --- | --- | --- | --- | --- | --- | --- | --- |
| CC[C@H](C)[C@H](NC(=O)[C@H]1CCCCN1C)C(=O)N(C)[C@H](C[C@@H](OC)c1nc(C(=O)N[C@@H](Cc2ccccc2)C(=O)OC)cs1)C(C)C [Compound 16] | > 100 nM | 15 nM | 28 nM | > 100 nM | > 100 nM | 284 nM | 19 nM | > 100 nM | > 100 nM | 3.1 nM | – | – | – | – | – | – | – | – | – | – | EC50 (HCT-15 [2]; [13]): 157 nM |
| CC[C@H](C)[C@H](NC(=O)[C@H]1CCCCN1C)C(=O)N(C)[C@H](C[C@@H](OC)c1nc(C(=O)N[C@@H](Cc2ccc(N)cc2)CC(C)C(=O)O)cs1)C(C)C (stereo partly shown) [Compound 51] | 37 nM | 5.2 nM | 1.5 nM | 1.3 nM | 41 nM | 101 nM | 10 nM | 7.6 nM | 6.4 nM | 7.4 nM | > 100 nM | 93 nM | – | – | – | – | – | – | – | – | – |
| CC[C@H](C)[C@H](NC(=O)[C@H]1CCCCN1C)C(=O)N(C)[C@H](C[C@@H](OC(C)=O)c1nc(C(=O)N[C@@H](Cc2ccc(N)cc2)C(=O)O)cs1)C(C)C [Compound 56] | > 100 nM | 5.7 nM | > 100 nM | > 100 nM | > 100 nM | 2480 nM | 29 nM | > 100 nM | > 100 nM | > 100 nM | – | – | – | – | – | – | – | – | – | – | EC50 (HCT-15 [2]; [13]): > 3000 nM |
| CC[C@H](C)[C@H](NC(=O)[C@H]1CCCCN1C)C(=O)N(COC(=O)CC(C)C)[C@H](C[C@@H](O)c1nc(C(=O)N[C@@H](Cc2ccccc2)C(=O)OC)cs1)C(C)C [Compound 28] | 5.8 nM | 10 nM | 13 nM | 4.3 nM | 64 nM | 223 nM | 61 nM | 18 nM | 34 nM | 0.82 nM | 5.8 nM | 132 nM | – | – | – | – | – | – | – | – | – |
| CCC[C@H](NC(=O)[C@H](Cc1ccccc1)NC(=O)c1csc([C@@H](C[C@H](C(C)C)N(C)C(=O)[C@@H](NC(=O)[C@H]2CCCCN2C)[C@@H](C)CC)OC)n1)C(=O)OC [Compound 19] | 3.8 nM | 9.6 nM | 32 nM | 34 nM | > 100 nM | 1070 nM | > 100 nM | > 100 nM | > 100 nM | 5.2 nM | > 100 nM | 245 nM | – | – | – | – | – | – | – | – | – |
| CC[C@H](C)[C@H](NC(=O)[C@H]1CCCCN1C)C(=O)N(C)[C@H](C[C@@H](OC)c1nc(C(=O)NC(Cc2ccccc2)C[C@H](C)C(=O)O)cs1)C(C)C (stereo partly shown) [Compound 15] | – | – | – | – | – | – | – | – | – | – | – | – | 2.3 nM | 2.6 nM | 0.47 nM | 27 nM | 67 nM | 8.6 nM | 3 nM | 2.7 nM | EC50 (HCT-15 [2]; [24]): 40 nM |
| CC[C@H](C)[C@H](NC(=O)[C@H]1CCCCN1C)C(=O)N(C)[C@H](C[C@@H](OC)c1nc(C(=O)N[C@@H](Cc2ccccc2)C(=O)N[C@@H](C)C(=O)OC)cs1)C(C)C [Compound 24] | – | – | – | – | – | – | – | – | – | – | – | – | 51 nM | 8.4 nM | 11 nM | 76 nM | 704 nM | 18 nM | > 100 nM | 4 nM | EC50 (UO-31; [25]): 13 nM; EC50 (ZR-75; [26]): 3.6 nM; EC50 (786-O; [27]): > 100 nM; EC50 (HCT-15 [2]; Homo sapiens, HCT-15, 72 h, read-out: EC50 HCT-15 (72 h), ATP luminescence, HCT-15, 72 h incubation): 188 nM |
| CCCC(NC(=O)c1csc([C@@H](C[C@H](C(C)C)N(C)C(=O)[C@@H](NC(=O)[C@H]2CCCCN2C)[C@@H](C)CC)OC)n1)C(=O)OC (stereo partly shown) [Compound 17] | – | – | – | – | – | – | – | – | – | – | – | – | 32 nM | 15 nM | 53 nM | > 100 nM | 392 nM | 22 nM | > 100 nM | 3.9 nM | EC50 (UO-31; [25]): > 100 nM; EC50 (ZR-75; [26]): > 100 nM; EC50 (786-O; [27]): 32 nM; EC50 (HCT-15 [2]; [24]): 443 nM |
